Test results: patent publication US20080051378A1, “Combinations Comprising Antimuscarinic Agents and Corticosteroids” (priority 2004, published 2008)

Tested on: ovoalbumin-sensitized guinea-pig isolated tracheal rings
Assay: Inhibition of the antigen (ovoalbumin)-induced contraction in ovoalbumin-sensitized guinea-pig isolated tracheal rings
Settings: for CONTRACTILE RESPONSE TO OVOALBUMIN (in mg) (mean ± sem): vehicle 886 ± 108 mg
Method: Male Dunkin-Hartley guinea-pigs (weighing 380-420 g) from Harlan Ibérica (St. Feliu de Codines, Spain) are used. They are housed, with free access to food and water, in rooms kept at 22±2° C. under a 12 hours light-dark cycle until the start of the experiment.
The animals are sensitised by means of two sessions of aerosolization with a solution of 5 mg/ml of ovoalbumin on days zero and 7 of the study. The aerosolization procedure consists of two 30-s nebulisations (Efbe air brush apparatus) with an interval of 5 minutes with animals maintained in a plexiglass box for 10 minutes since the beginning of the procedure.
Between days 14 to 20 from the beginning of the experiment the animals are euthanised and the tracheal tissue is removed. A single tracheal ring is excised and suspended in an organ bath containing Krebs solution. Once attached to a force isometric transducer, it is submitted to a basal resting tension of 1 g, equilibrated with a mixture a 5% CO2 in O2 and maintained at 37° C.
The preparations are allowed to equilibrate for a period of not less than 60 minutes and then the vehicle or the compound(s) to be tested are added to the bath. The corticosteroids (if present) are added first, and, after an incubation period of 45 minutes, the M3 antagonist are subsequently added allowing the system to stand for another 15 minutes. At this moment ovoalbumin is added (at a final concentration in the bath of 10 μg/ml) to elicit the contractile response which is measured immediately.
The contractile responses measured with a force isometric transducer are expressed in mg.

[1] = each compound 10 μM in organ bath, corticosteroid added 45 min before, M3 antagonist 15 min before ovoalbumin 10 μg/ml

SMILES: C[C@H]1C[C@H]2[C@@H]3CCC4=CC(=O)C=C[C@]4(C)[C@@]3(Cl)[C@@H](O)C[C@]2(C)[C@@]1(O)C(=O)CO [BECLOMETHASONE, beclomethasone]
- CONTRACTILE RESPONSE TO OVOALBUMIN (in mg) (mean ± sem) [1]: 778 ± 83 mg
- % INHIBITION OF THE CONTRACTILE RESPONSE (each compound 10 μM in organ bath, corticosteroid added 45 min before, M3 antagonist 15 min before ovoalbumin 10 μg/ml, versus vehicle): 12%
- inhibition of the contractile response, comparison in words (text summary of Table 1 and FIG. 1, 10 μM each): smaller effect

SMILES: CCCC1O[C@@H]2C[C@H]3[C@@H]4CCC5=CC(=O)C=C[C@]5(C)[C@H]4[C@@H](O)C[C@]3(C)[C@]2(C(=O)CO)O1 (some centres unmarked) [BUDESONIDE, budesonide]
- inhibition at 10 µM (Cavia porcellus, each compound 10 μM in organ bath, corticosteroid added 45 min before, M3 antagonist 15 min before ovoalbumin 10 μg/ml, versus vehicle, read-out: % INHIBITION OF THE CONTRACTILE RESPONSE): 51%
- CONTRACTILE RESPONSE TO OVOALBUMIN (in mg) (mean ± sem) [1]: 435 ± 68 mg
